Target: T1, mS29 (Saccharomyces cerevisiae, UniProt Q01163)
T1 construct: gene RSM23; native subunit within the mitoribosomal small subunit purified from yeast mitochondria
Assay: cryo-EM structure of the SSU […] Å
Assay type: binding
Details: within the mitoribosomal SSU; nucleotide pocket; reassigned from GDP

With Nc1ncnc2c1ncn2[C@@H]1O[C@H](COP(=O)(O)OP(=O)(O)OP(=O)(O)O)[C@@H](O)[C@H]1O [adenosine triphosphate] the “cryo-EM structure of the SSU 2.3 Å” value was “guanosine diphosphate (GDP) to adenosine triphosphate (ATP) in the nucleotide pocket of the protein mS29”.

Reference: article PMC11046306, “METTL17 is an Fe-S cluster checkpoint for mitochondrial translation” (Molecular cell, 2024)
